From US20240390350A1, “PHENYL CORE COMPOUNDS AS MGLU5 NEGATIVE ALLOSTERIC MODULATORS AND METHODS OF MAKING AND USING THE SAME” (Vanderbilt University, priority 2021, published 2024) come the findings set out here.

In the assay the target is T1, human mGlu5 (Homo sapiens, UniProt P41594).
T1 construct: expressed in transfected cells; host or cells: HEK 293A
Kind of assay: mGlu5 negative allosteric modulator Ca2+ flux assay in HEK 293A cells (Table 1). The format is cell-based. Conditions: HEK 293A cells stably expressing mGlu5; Ca2+ flux (Fluo-4); decrease of glutamate EC80 response; read-out: hmGlu5 NAM IC50.

The structures appear in SMILES notation. pIC50: −log10 of the molar value.

T1 sequence (P41594 21-1212): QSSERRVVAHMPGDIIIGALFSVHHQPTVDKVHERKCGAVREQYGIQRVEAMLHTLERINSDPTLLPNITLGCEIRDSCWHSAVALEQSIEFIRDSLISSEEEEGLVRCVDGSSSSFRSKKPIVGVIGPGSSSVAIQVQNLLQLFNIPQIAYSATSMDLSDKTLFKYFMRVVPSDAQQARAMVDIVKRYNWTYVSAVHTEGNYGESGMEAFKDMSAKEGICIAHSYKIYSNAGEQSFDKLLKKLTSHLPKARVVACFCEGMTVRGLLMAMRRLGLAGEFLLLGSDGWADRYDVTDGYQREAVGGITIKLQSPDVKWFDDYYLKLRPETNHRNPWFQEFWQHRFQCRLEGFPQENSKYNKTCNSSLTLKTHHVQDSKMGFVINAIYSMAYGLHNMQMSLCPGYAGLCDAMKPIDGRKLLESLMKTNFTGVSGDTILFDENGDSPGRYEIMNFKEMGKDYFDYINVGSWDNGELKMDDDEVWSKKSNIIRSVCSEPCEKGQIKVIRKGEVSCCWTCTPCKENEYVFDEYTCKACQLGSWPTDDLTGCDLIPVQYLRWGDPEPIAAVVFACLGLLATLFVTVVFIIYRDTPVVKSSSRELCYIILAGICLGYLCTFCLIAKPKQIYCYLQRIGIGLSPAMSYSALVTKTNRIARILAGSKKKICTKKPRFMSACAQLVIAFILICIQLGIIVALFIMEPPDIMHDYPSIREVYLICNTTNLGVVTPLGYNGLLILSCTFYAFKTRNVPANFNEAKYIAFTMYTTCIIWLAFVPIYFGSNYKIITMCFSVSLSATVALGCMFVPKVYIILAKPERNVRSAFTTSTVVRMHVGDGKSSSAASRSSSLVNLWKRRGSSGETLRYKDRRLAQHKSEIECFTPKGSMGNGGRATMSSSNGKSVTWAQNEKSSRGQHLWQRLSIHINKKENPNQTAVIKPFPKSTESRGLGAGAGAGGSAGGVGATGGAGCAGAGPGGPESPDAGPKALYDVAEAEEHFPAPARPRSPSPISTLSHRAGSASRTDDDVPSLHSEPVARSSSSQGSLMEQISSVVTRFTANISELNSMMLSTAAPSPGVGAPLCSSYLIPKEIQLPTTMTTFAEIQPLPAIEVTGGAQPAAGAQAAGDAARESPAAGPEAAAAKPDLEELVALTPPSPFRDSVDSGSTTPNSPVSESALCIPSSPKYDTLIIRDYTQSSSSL

By pIC50 is commonly meant −log10 of the IC50, conventionally taken in molar units. On to `Cc1cccc(NC(=O)c2cc(F)c(F)c(-c3ccnn3C)c2)n1` [Compound 43, 3,4-difluoro-5-(1-methyl-1H-pyrazol-5-yl)-N-(6-methylpyridin-2-yl)benzamide], for which the pIC50 is 5.35.
Regarding `Cc1cc(C(=O)Nc2ccc(F)cn2)cc(-c2cnccc2C)c1` [Compound 6, N-(5-fluoropyridin-2-yl)-3-methyl-5-(4-methylpyridin-3-yl)benzamide], the pIC50 was 6.43.
Next, `Cc1cccc(NC(=O)c2cc(F)c(F)c(-c3cc(C(F)(F)F)nn3C)c2)n1` [Compound 44, 3,4-difluoro-5-(1-methyl-3-(trifluoromethyl)-1H-pyrazol-5-yl)-N-(6-methylpyridin-2-yl)benzamide]: 5.45; `Cc1cccc(NC(=O)c2cc(-c3cnccc3C)c(F)cc2F)n1` [Compound 47, 2,4-difluoro-N-(6-methylpyridin-2-yl)-5-(4-methylpyridin-3-yl)benzamide]: 6.98.
Next, `Cc1csc(NC(=O)c2cc(Cl)cc(-c3cnccc3C)c2)n1` [Compound 14, 3-chloro-5-(4-methylpyridin-3-yl)-N-(4-methylthiazol-2-yl)benzamide]: 6.20; `Cn1nc(C(F)(F)F)cc1-c1cc(F)c(F)c(C(=O)Nc2ccc(F)cn2)c1` [Compound 36, 2,3-difluoro-N-(5-fluoropyridin-2-yl)-5-(1-methyl-3-(trifluoromethyl)-1H-pyrazol-5-yl)benzamide]: less than 5.00.
Take `Cc1ccncc1-c1cc(C#N)cc(C(=O)Nc2ccc(F)cn2)c1` [Compound 25, 3-cyano-N-(5-fluoropyridin-2-yl)-5-(4-methylpyridin-3-yl)benzamide]: the pIC50 is 6.00.
`Cc1cc(C(=O)Nc2cccc(C)n2)cc(-c2cnccc2C)c1` [Compound 4, 3-methyl-N-(6-methylpyridin-2-yl)-5-(4-methylpyridin-3-yl)benzamide]: the negative logarithm of the IC50 (pIC50) is 7.37.
`Cc1csc(NC(=O)c2cc(-c3cnccc3C)c(F)cc2F)n1` [Compound 37, 2,4-difluoro-5-(4-methylpyridin-3-yl)-N-(4-methylthiazol-2-yl)benzamide]: the negative logarithm of the IC50 (pIC50) was 6.36.
On to `Cc1ccncc1-c1cc(C(=O)Nc2ccc(F)cn2)cc(C(F)(F)F)c1` [Compound 21, N-(5-fluoropyridin-2-yl)-3-(4-methylpyridin-3-yl)-5-(trifluoromethyl)benzamide], for which the pIC50 was 5.47.
In the case of `Cc1cccc(NC(=O)c2cc(-c3cnccc3C)ccc2F)n1` [Compound 13, 2-fluoro-N-(6-methylpyridin-2-yl)-5-(4-methylpyridin-3-yl)benzamide], the pIC50 was 6.44.
For the compound `Cc1ccncc1-c1cc(C(=O)Nc2cccc(Cl)n2)c(F)cc1F` [Compound 48, N-(6-chloropyridin-2-yl)-2,4-difluoro-5-(4-methylpyridin-3-yl)benzamide], the pIC50 is 6.72.
For `Cc1ccncc1-c1cc(C(=O)Nc2ccccn2)cc(C(F)(F)F)c1` [Compound 19, 3-(4-methylpyridin-3-yl)-N-(pyridin-2-yl)-5-(trifluoromethyl)benzamide], the pIC50 was 5.59.
Consider `Cc1cccc(NC(=O)c2cc(F)c(F)c(-c3cnc(C)s3)c2)n1` [Compound 45, 3,4-difluoro-N-(6-methylpyridin-2-yl)-5-(2-methylthiazol-5-yl)benzamide], for which the pIC50 was 5.91.
Next, `O=C(Nc1ccc(F)cn1)c1cc(-c2cncc(F)c2)cc(F)c1F` [Compound 34, 2,3-difluoro-N-(5-fluoropyridin-2-yl)-5-(5-fluoropyridin-3-yl)benzamide]: 6.79; `Cc1ccncc1-c1cc(C(=O)Nc2ccc(F)cn2)cc(F)c1F` [Compound 29, 3,4-difluoro-N-(5-fluoropyridin-2-yl)-5-(4-methylpyridin-3-yl)benzamide]: 5.65.
Take `Cc1cc(C(=O)Nc2nc(C)cs2)cc(-c2cnccc2C)c1` [Compound 7, 3-Methyl-5-(4-methylpyridin-3-yl)-N-(4-methylthiazol-2-yl)benzamidecarboxamide]: the pIC50 is 6.90.
Under `Cc1ccncc1-c1cc(C(=O)Nc2ccc(Cl)cn2)cc(F)c1F` [Compound 31, N-(5-chloropyridin-2-yl)-3,4-difluoro-5-(4-methylpyridin-3-yl)benzamide] stands 6.17.
